{"source": "paper PMC5571359", "about": "“Screening the Medicines for Malaria Venture Pathogen Box across Multiple Pathogens Reclassifies Starting Points for Open-Source Drug Discovery” (Antimicrobial Agents and Chemotherapy, 2017)", "origin": "cited, not measured here", "key": {"HepG2": {"test_system": "HepG2", "details": "cited from earlier work"}, "P. falciparum ABS": {"test_system": "P. falciparum ABS", "details": "cited from earlier work; for EC50: ChEMBL Data; for IC50: read-out: Pf 3D7 Pbox IC50"}, "[1]": {"details": "NITD, read-out: NITD (ref 94) EC50"}, "[2]": {"details": "Pf 3D7, ref Pathogen Box supporting information"}, "[3]": {"details": "read-out: HepG2 PBox CC50 µM, HepG2 cytotoxicity, ref PBox supporting information"}, "[4]": {"details": "ref Pbox supporting information"}, "[5]": {"details": "TCMDC, read-out: TCMDC (ref 93) EX50"}, "[6]": {"details": "HepG2, ref PBox supporting information"}, "[7]": {"details": "P. falciparum, read-out: NITD (ref 94) EC50"}, "[8]": {"details": "P. falciparum 3D7, ref PBox supporting information"}}, "note": "Where two headings read alike, the source gives them in different places."}
{"compound": "O=C1[C@@H](Oc2ccccc2)[C@@H](c2ccc(Cl)cc2)N1CCn1cnc2c(NCc3ccccc3)ncnc21", "note": "[MMV688352]", "values": [{"measurement": "CC50", "setting": "HepG2; read-out: HepG2 PBox CC50, HepG2, ref PBox supporting information", "value": 3, "unit": "µM"}]}
{"compound": "COc1cc(OC)cc(C(=O)NCC2Cc3cc(Cl)cc(-c4ccncc4)c3O2)c1", "note": "(stereo not drawn) [MMV007471]", "values": [{"measurement": "EC50", "setting": "P. falciparum ABS; [1]", "value": 0.37, "unit": "µM"}, {"measurement": "IC50", "setting": "P. falciparum ABS; [2]", "value": 0.58, "unit": "µM"}]}
{"compound": "N#Cc1ccc(-c2ccc(OCC(N)=O)cc2)cc1", "note": "[MMV053220]", "values": [{"measurement": "CC50", "setting": "HepG2; [3]", "value": "> 100", "unit": "µM"}]}
{"compound": "Cc1cc(OCC(=O)NCc2ccccc2)c2cc(Br)ccc2n1", "note": "[MMV687747]", "values": [{"measurement": "CC50", "setting": "HepG2; [3]", "value": 31, "unit": "µM"}]}
{"compound": "COc1cc(C(F)(F)F)nc2ccc(C)c(N)c12", "note": "[MMV047015]", "values": [{"measurement": "CC50", "setting": "HepG2; [3]", "value": "> 100", "unit": "µM"}]}
{"compound": "COc1ccc(N(CCc2cccc(C)n2)C(=O)C2CCCCC2)cc1", "note": "[MMV675996]", "values": [{"measurement": "HepG2 PBox CC20 μMc", "setting": "HepG2; [4]", "value": ">80", "unit": "µM"}]}
{"compound": "O=C(CCC1CCCCC1)Nc1cccc(-c2nnc(-c3ccco3)o2)c1", "note": "[MMV676589]", "values": [{"measurement": "CC50", "setting": "HepG2; [3]", "value": "> 100", "unit": "µM"}]}
{"compound": "CC(C(=O)N1CCCC1)N1CCN(S(=O)(=O)c2ccc(C(C)(C)C)cc2)CC1", "note": "(stereo not drawn) [MMV020291]", "values": [{"measurement": "EC50", "setting": "P. falciparum ABS; [5]", "value": 0.64, "unit": "µM"}, {"measurement": "IC50", "setting": "P. falciparum ABS; [2]", "value": 0.9, "unit": "µM"}]}
{"compound": "Cc1cc(NCC(C)C)c2n[nH]c(-c3ccccc3)c2n1", "note": "[MMV021375]", "values": [{"measurement": "EC50", "setting": "P. falciparum ABS; [5]", "value": 0.74, "unit": "µM"}, {"measurement": "IC50", "setting": "P. falciparum ABS; [2]", "value": 1.4, "unit": "µM"}]}
{"compound": "CCC(Sc1nc2ccccc2o1)C(=O)Nc1nnc(C)s1", "note": "(stereo not drawn) [MMV611037]", "values": [{"measurement": "CC50", "setting": "HepG2; [3]", "value": "> 100", "unit": "µM"}]}
{"compound": "CC(C)(C)c1cc(C(=O)Nc2cccnc2)cc(C(=O)Nc2cccnc2)c1", "note": "[MMV020982]", "values": [{"measurement": "EC50", "setting": "P. falciparum ABS; [5]", "value": 0.76, "unit": "µM"}, {"measurement": "IC50", "setting": "P. falciparum ABS; [2]", "value": 0.9, "unit": "µM"}]}
{"compound": "CCCCc1ccc(NC(=O)Nc2ccc(O[C@H]3CCCC[C@@H]3N(C)c3ccccc3)c(F)c2)cc1", "note": "[MMV676063]", "values": [{"measurement": "HepG2 PBox CC20 μMc", "setting": "HepG2; [4]", "value": 5.8, "unit": "µM"}]}
{"compound": "COc1cccc(OCC(=O)c2ccc(Br)cc2)c1", "note": "[MMV676379]", "values": [{"measurement": "CC50", "setting": "HepG2; [3]", "value": "> 100", "unit": "µM"}]}
{"compound": "Cc1cc(O)nc(-n2nc(C)cc2C)n1", "note": "[MMV393995]", "values": [{"measurement": "CC50", "setting": "HepG2", "value": 60.7, "unit": "µM"}]}
{"compound": "O=S(=O)(c1ccc(Cl)cc1)N1CCN(C(=S)NCc2ccco2)CC1", "note": "[MMV000858]", "values": [{"measurement": "EC50", "setting": "P. falciparum ABS; [1]", "value": 0.97, "unit": "µM"}, {"measurement": "IC50", "setting": "P. falciparum ABS; [2]", "value": 1.2, "unit": "µM"}]}
{"compound": "O=C(c1cc2ccccc2o1)N1CCN(Cc2ccc3c(c2)OCO3)CC1", "note": "[MMV676520]", "values": [{"measurement": "CC50", "setting": "HepG2; [3]", "value": "> 100", "unit": "µM"}]}
{"compound": "COC(=O)C1=C(C)NC(C)=C(C(=O)OC(C)C)C1c1cccc2nonc12", "note": "(stereo not drawn) [MMV001493]", "values": [{"measurement": "HepG2 PBox CC20 μMc", "setting": "HepG2", "value": 66, "unit": "µM"}]}
{"compound": "O=C(C1CCN(c2cc(-n3cccc3)ncn2)CC1)N1CCc2ccccc2C1", "note": "[MMV687172]", "values": [{"measurement": "CC50", "setting": "HepG2; [3]", "value": "> 100", "unit": "µM"}]}
{"compound": "CCCn1nnc(NC(=O)COc2ccc(C3CCCCC3)cc2)n1", "note": "[MMV676597]", "values": [{"measurement": "CC50", "setting": "HepG2; [3]", "value": "> 100", "unit": "µM"}]}
{"compound": "O=C(c1[nH]nc2c1CCCC2)N1CCN(Cc2ccc3c(c2)OCO3)CC1", "note": "[MMV676389]", "values": [{"measurement": "CC50", "setting": "HepG2; [3]", "value": "> 100", "unit": "µM"}]}
{"compound": "Nc1ncnc2c1ncn2C[C@@H](O)[C@@H](O)C(=O)O", "note": "[MMV689255]", "values": [{"measurement": "HepG2 PBox CC20", "setting": "HepG2; [6]", "value": ">80", "unit": "µM"}]}
{"compound": "CC(C)C(Oc1cccc2ccccc12)C(=O)O", "note": "(stereo not drawn) [MMV676191]", "values": [{"measurement": "HepG2 PBox CC20", "setting": "HepG2; [6]", "value": ">80", "unit": "µM"}]}
{"compound": "CC(C)(C)c1cc(C(=O)N2CCN(c3nccnc3C#N)CC2)n(Cc2ccccc2)n1", "note": "[MMV023949]", "values": [{"measurement": "EC50", "setting": "P. falciparum ABS; [5]", "value": 0.76, "unit": "µM"}, {"measurement": "IC50", "setting": "P. falciparum ABS; [2]", "value": 0.6, "unit": "µM"}]}
{"compound": "COc1cccc2c(C)nc(N=C(N)N)nc12", "note": "[MMV000907]", "values": [{"measurement": "EC50", "setting": "P. falciparum ABS; [1]", "value": 0.29, "unit": "µM"}, {"measurement": "IC50", "setting": "P. falciparum ABS; [2]", "value": 1.06, "unit": "µM"}]}
{"compound": "Cc1cc(Cl)ccc1NC(=O)CCc1ccc(S(=O)(=O)NCC(C)C)cc1", "note": "[MMV161996]", "values": [{"measurement": "CC50", "setting": "HepG2; [3]", "value": "> 100", "unit": "µM"}]}
{"compound": "CC(C)(C(=O)Nc1ccc(F)cc1)n1cc(-c2ccccc2F)cn1", "note": "[MMV687239]", "values": [{"measurement": "CC50", "setting": "HepG2; [3]", "value": "> 100", "unit": "µM"}]}
{"compound": "CCc1nc2ccc(Cl)cn2c1C(=O)NCc1ccc(N2CCC(c3ccc(OC(F)(F)F)cc3)CC2)cc1", "note": "[MMV687696]", "values": [{"measurement": "CC50", "setting": "HepG2; [3]", "value": "> 100", "unit": "µM"}]}
{"compound": "CC1=NN(c2nc3ccccc3s2)C(=O)C1Cc1cccc2ccccc12", "note": "(stereo not drawn) [MMV676558]", "values": [{"measurement": "CC50", "setting": "HepG2; [3]", "value": 21.9, "unit": "µM"}]}
{"compound": "CCCCS(=O)(=O)Nc1ccc2cnn(C)c2c1", "note": "[MMV687145]", "values": [{"measurement": "CC50", "setting": "HepG2; [3]", "value": "> 100", "unit": "µM"}]}
{"compound": "CC(C)NCC(=O)Nc1cccc(C(=O)Nc2cccc(C(F)(F)F)c2)c1", "note": "[MMV020165]", "values": [{"measurement": "EC50", "setting": "P. falciparum ABS; [5]", "value": 0.27, "unit": "µM"}, {"measurement": "IC50", "setting": "P. falciparum ABS; [2]", "value": 0.35, "unit": "µM"}]}
{"compound": "O=C(Nc1cnc2ccccc2c1)c1cccc(-n2cnnn2)c1", "note": "[MMV084864]", "values": [{"measurement": "EC50", "setting": "P. falciparum ABS; [7]", "value": 0.17, "unit": "µM"}, {"measurement": "IC50", "setting": "P. falciparum ABS; [8]", "value": 0.54, "unit": "µM"}]}
{"compound": "CCc1c(C)nc(-n2nc(C)cc2NC(=O)c2ccccc2SC)[nH]c1=O", "note": "[MMV676477]", "values": [{"measurement": "CC50", "setting": "HepG2; [3]", "value": 1.3, "unit": "µM"}]}
{"compound": "Nc1cccnc1Nc1ccc(Cl)cc1", "note": "[MMV676524]", "values": [{"measurement": "CC50", "setting": "HepG2; [3]", "value": 9, "unit": "µM"}]}
{"compound": "CCCn1c(CNc2ccccc2O)nc2ccccc21", "note": "[MMV676445]", "values": [{"measurement": "CC50", "setting": "HepG2; [3]", "value": 84.1, "unit": "µM"}]}
{"compound": "CCCNC(=O)N1CCC2(CC1)CC(=O)c1cc(C)ccc1O2", "note": "[MMV085230]", "values": [{"measurement": "EC50", "setting": "P. falciparum ABS; [7]", "value": 0.87, "unit": "µM"}, {"measurement": "IC50", "setting": "P. falciparum ABS; [8]", "value": 2.06, "unit": "µM"}]}
{"compound": "Cc1ccc2nc(Cl)c(CNCc3cccs3)cc2c1", "note": "[MMV676439]", "values": [{"measurement": "CC50", "setting": "HepG2; [3]", "value": "> 100", "unit": "µM"}]}
{"compound": "COC(=O)c1c(NC(=O)c2c(F)c(F)c(F)c(F)c2F)sc2c1CCCCC2", "note": "[MMV461553]", "values": [{"measurement": "CC50", "setting": "HepG2; [3]", "value": 7.5, "unit": "µM"}]}
{"compound": "COc1ccc(Cn2cnc3c(-c4ccco4)nc(Cl)nc32)cc1", "note": "[MMV687170]", "values": [{"measurement": "CC50", "setting": "HepG2; [3]", "value": "> 100", "unit": "µM"}]}
